The values that follow come from article PMC3338619, “Ligand Binding Study of Human PEBP1/RKIP: Interaction with Nucleotides and Raf-1 Peptides Evidenced by NMR and Mass Spectrometry” (PLoS ONE, 2012).

The target in assay [1] is T1, hPEBP1 (Homo sapiens, UniProt P30086).
T1 construct: all residues except Met1, Val3, Asp35, Gln45, Lys47 and Lys187 (total residues: 187;); made in house; host or cells: E. coli BL21 (DE3), pET31b
The assay can be described thus: 15N-1H HSQC NMR titration of ligands with hPEBP1 (KD from CSP fitting). It is filed as binding. As to the method: The interactions between hPEBP1 100–270 µM and the four selected ligands were investigated by ^15N-^1H heteronuclear single quantum coherence (HSQC) NMR experiments with a sensitivity enhancement and gradient selected coherence. ^1H, ^15N HSQC spectra were recorded at 20 or 30°C on a Bruker 500 MHz or a Varian Inova 600 MHz spectrometer. Two experimental sets of conditions were tested: MES 10 mM pH 6.5 at 20°C, and HEPES 10 mM, NaCl 100 mM pH 7.5 at 30°C.
In the simple case of protein-ligand interactions, the free and the bound states are observed during the titration. The interpretation of an NMR spectrum, such as an HSQC, depends on the rate of exchange between the bound and the free forms. Three different cases can be observed. If the complex rate of dissociation is very slow, two separate resonances are observed at the positions corresponding to the chemical shifts characteristic of the two states (free and bound). During the titration, the intensity of the free resonance decreases while the bound resonance one appears and goes up. This regime corresponds to slow chemical exchange on the NMR time scale. If the complex rate of dissociation is very fast, only a single resonance is observed, whose position is the average of the chemical shifts of the two states, weighted by their relative populations. In this case, Chemical Shift Perturbations (CSP) are observed, i.e. the chemical shift evolves as the ligand concentration increases. This regime corresponds to fast exchange on the NMR time scale, and is typical for weaker affinity complexes. In the intermediate chemical exchange case, in addition to CSP, complex changes will affect the line shape that results in the observation of very broad signals with low intensity.
In the fast exchange regime, CSP can be measured from ^15N-HSQC spectra using the equation: [drawing 1] (1) with δ being the chemical shift in ppm.
A threshold value was estimated in order to determine significant CSP. In a first step, all the CSP are considered and the average (<CSP>) plus two times the standard deviation (σ) is calculated. Then, the highest CSP (CSP≥<CSP>+2σ) are removed from the data and new average and new standard deviation calculated. The operation is repeated until the convergence is reached.
Once the residues involved in the binding were selected, the experimental data were fitted with the quadratic equation 2 using SigmaPlot 9.0 in order to obtain the dissociation constant value (KD): [drawing 2] (2) where [P]0 and [L] are the total protein and ligand concentrations, respectively. A KD value was estimated for each residue involved in the binding, and then an average was calculated.

The next assay relates to rPEBP1. Also on record: method as in PMID 20463977. To be noted: pH 7.4/NaCl 100 mM/30°C, 130 mM GTP for 75 µM rPEBP1; cited from earlier work.
Assay [2] deals with T1, hPEBP1. Nature of the assay: Native mass spectrometry KD determination (bound protein fraction). In kind it is binding. The conditions noted are these: ammonium bicarbonate 20 mM pH 7.4/37°C, no NaCl; read-out: MS KD. The protocol: Non-labeled recombinant hPEBP1 purified as previously described was used for mass spectrometry analysis. To prevent Na^+ adduct formation, the commercial GTP and FMN nucleotides used in native MS were desalted. For this purpose, a protocol derived from the RNA-desalting procedure of Limbach et al. (1995) was set up.
All MS measurements were performed in an ESI-ion trap model Esquire HCT or Ultra HCT PTM Discovery (Bruker, Bremen, Germany), or in a maXis ESI-UHR-Qq-TOF (Bruker). Complexes were formed by incubating hPEBP1 with a range of ligand concentrations in ammonium bicarbonate 20 mM/formic acid buffer, pH 7.4 at 37°C or in ammonium acetate 20 mM, pH 6.6 at 20°C. After incubation, samples were treated with a Zeba micro gel filtration device with a 7 kDa cut-off (Thermo Scientific, Waltham, MA) prior to MS measurement, or analyzed directly in MS. The KD was determined by measuring the bound protein fraction by native MS. Details of the development of the native MS method for KD determination are described in the work of Jaquillard et al. (in press).

Where [3] appears, read: HEPES 10 mM pH 7.5/NaCl 100 mM/30°C (near physiological conditions).

T1 sequence (P30086 whole entry): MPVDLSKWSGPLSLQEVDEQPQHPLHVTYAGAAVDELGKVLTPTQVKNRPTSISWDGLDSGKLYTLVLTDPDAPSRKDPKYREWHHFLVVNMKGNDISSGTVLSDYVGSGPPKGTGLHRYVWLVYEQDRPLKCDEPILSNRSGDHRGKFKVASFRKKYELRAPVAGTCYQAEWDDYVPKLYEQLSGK

Broadly, the Kd is the concentration at which binding is half-saturated. In turn, `O=C1N[C@@H](Cc2ccccc2)CO1` [locostatin precursor, (S)-4-benzyl-2-oxazolidinone] displayed a Kd at hPEBP1 [1] (setting [3]) of 173 ± 19 µM.

For `Nc1nc2c(ncn2[C@@H]2O[C@H](COP(=O)(O)OP(=O)(O)OP(=O)(O)O)[C@@H](O)[C@H]2O)c(=O)[nH]1` [GTP, Guanosine triphosphate], the “chemical shift perturbations for rPEBP1” value with rPEBP1 is given as “did not cause significant chemical shift perturbations”. Further, the equilibrium dissociation constant (Kd) at hPEBP1 [1] (setting [3]) amounted to 3420 ± 1970 µM; on hPEBP1 [1] (MES 10 mM pH 6.5/20°C), 669 ± 140 µM; at hPEBP1 [2], 89 ± 48 µM.

For `Cc1cc2nc3c(=O)[nH]c(=O)nc-3n(C[C@H](O)[C@H](O)[C@H](O)COP(=O)(O)O)c2cc1C` [FMN, flavin mononucleotide], the Kd at hPEBP1 [1] (HEPES 10 mM pH 7.5/20°C, from CSP data of 9 residues in fast exchange) is 14 ± 11 µM; at hPEBP1 [1] (setting [3]) it was 252 ± 84 µM; on hPEBP1 [1] (MES 10 mM pH 6.5/20°C), 14 ± 9 µM; at hPEBP1 [2], 5 ± 4 µM.
